Measured values: ChEMBL document CHEMBL5726765, “5-hydroxytryptamine receptor 7 activity modulators and their method of use” (2019)

Target: 5-hydroxytryptamine receptor 7 (Homo sapiens, UniProt P34969)
Assay: A similar stock of the reference compound chlorpromazine is also prepared as a positive control. Eleven dilutions (5× assay concentration) of the compound of the disclosure and chlorpromazine are prepared in the Assay Buffer by serial dilution to yield final corresponding assay concentrations ranging from 10 pM to 10 μM.A stock concentration of 5 nM [3H]LSD (lysergic acid diethyl amide) is prepared in 50 mM Tris-HCl, 10 mM MgCl2, 1 mM EDTA, pH 7.4 (Assay Buffer). Aliquots (50 μl) of radioligand are dispensed into the wells of a 96-well plate containing 100 μl of Assay Buffer. Duplicate 50-μl aliquots of the compound of the disclosure test and chlorpromazine positive control reference compound serial dilutions are added.Membrane fractions of cells expressing recombinant 5HT7 receptors (50 μL) are dispensed into each well. […]

5-hydroxytryptamine receptor 7, sequence (P34969 whole entry): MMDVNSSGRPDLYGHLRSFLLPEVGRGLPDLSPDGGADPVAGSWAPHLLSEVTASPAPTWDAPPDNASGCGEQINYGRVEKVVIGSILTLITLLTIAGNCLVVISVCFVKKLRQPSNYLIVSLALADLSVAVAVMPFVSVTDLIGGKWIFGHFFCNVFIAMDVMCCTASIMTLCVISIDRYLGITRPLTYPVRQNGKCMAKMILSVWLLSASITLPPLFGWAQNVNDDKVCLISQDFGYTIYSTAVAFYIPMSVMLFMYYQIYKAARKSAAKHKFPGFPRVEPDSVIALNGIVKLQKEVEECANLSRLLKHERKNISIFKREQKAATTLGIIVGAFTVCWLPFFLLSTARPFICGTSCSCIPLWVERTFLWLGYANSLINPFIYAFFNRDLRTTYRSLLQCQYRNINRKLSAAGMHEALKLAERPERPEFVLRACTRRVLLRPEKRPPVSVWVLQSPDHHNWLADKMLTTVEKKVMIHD

IC50: 3.16 µM
SMILES: CCC1(CC)CC(CCN2CCC(C(O)(c3ccccc3)c3ccccc3)CC2)OC1=O (stereo unspecified)
